In patent US9125857B2, “Method for producing a drug extract that contains hydroxystilbene” (priority 2005, dated 2015):

Assays:
[1] = Dissolving tests with ERr 731 dry extract in ethanol and glycerol; assay type: physicochemical; details: for dissolved proportion, % of theory, Test B / content found in solution, Test B: 200 mg of dry extract in 50 ml of ethanol 30% R; for content found in solution, Test B / content found in solution, Test C / content found in solution, Test D / content found in solution, Test A: extract content 61.9% rhaponticin, 29.9% deoxyrhaponticin; for dissolved proportion, % of theory, Test C / content found in solution, Test C: 200 mg of dry extract in 50 ml of ethanol 50% R; for dissolved proportion, % of theory, Test D / content found in solution, Test D: 200 mg of dry extract in 50 ml of ethanol 86% R; for dissolved proportion, % of theory, Test A / content found in solution, Test A: 200 mg of dry extract in 50 ml of glycerol R
Experimental: Determination of Stilbenes by High-Pressure Liquid Chromatography (HPLC) in the Dry Extract from Rhapontic Rhubarb Root
50 mg of extract, mixed with 40 ml of a mixture of acetone and water (1:1) in an amber glass vessel, treated in an ultrasonic bath for 15 minutes and made up to 50 ml with the solvent mixture and then diluted 1:10 with the solvent mixture.
A high-pressure liquid chromatography (HPLC) is carried out on a portion of the solution obtained above, with the following system parameters:
For a quantitative determination, the respective peak areas are found and compared with the corresponding peak areas of a standard extract of known composition.
a) Dissolving Tests with ERr 731® in Ethanol and Glycerol:
Content of the extract: • 61.9% rhaponticin • 29.9% deoxyrphaponticin

[2] = pH-dependent solubility of rhaponticin in aqueous solutions; assay type: physicochemical
From the text: Use is made of this for its isolation. Since, besides other organic acids, the root in particular has a high content of oxalic acid (⅔ in water-soluble and ⅓ in bound form), this must be neutralized during the isolation in order to prevent the pH drifting into the acidic range and thus to inhibit premature precipitation of the rhaponticin. This is achieved by using calcium oxide. The latter is employed as quicklime solution with a pH of 12.4-12.6.

| SMILES | dissolved proportion, % of theory, Test B [1] | content found in solution, Test B [1] | dissolved proportion, % of theory, Test C [1] | content found in solution, Test C [1] | dissolved proportion, % of theory, Test D [1] | content found in solution, Test D [1] | dissolved proportion, % of theory, Test A [1] | content found in solution, Test A [1] | solubility in aqueous solutions ([2]; acidic pH range (pH 3.4-3.6)) | solubility in aqueous solutions ([2]; alkaline pH range) |
| --- | --- | --- | --- | --- | --- | --- | --- | --- | --- | --- |
| COc1ccc(C=Cc2cc(O)cc(O[C@@H]3O[C@H](CO)[C@@H](O)[C@H](O)[C@H]3O)c2)cc1O [rhaponticin, 3,3′,5-Trihydroxy-4′-methoxystilbene-3-O-β-D-glucopyranoside] | (84.3% of theory) | 52.2% rhaponticin | (95.0% of theory) | 58.8% rhaponticin | (96.6% of theory) | 59.8% rhaponticin | (89.0% of theory) | 55.1% rhaponticin | precipitated | readily soluble |
| COc1ccc(C=Cc2cc(O)cc(O[C@@H]3O[C@H](CO)[C@@H](O)[C@H](O)[C@H]3O)c2)cc1 [deoxyrhaponticin] | (84.2% of theory) | 25.2% deoxyrhaponticin | (97.0% of theory) | 29.0% deoxyrhaponticin | (98.7% of theory) | 29.5% deoxyrhaponticin | (90.6% of theory) | 27.1% deoxyrhaponticin | – | – |
